Experimental data reported in patent US12077503B2, “Substituted cyclic amides and their use as herbicides” (FMC CORPORATION, priority 2015, dated 2024).

Key:
Type in all cases: in vivo
Kochia (Kochia scoparia) [1] = assay: Test A postemergence
Text: (§1) Seeds of plant species selected from barnyardgrass (Echinochloa crus-galli), Kochia (Kochia scoparia), ragweed (common ragweed, Ambrosia elatior), ryegrass, Italian (Italian ryegrass, Lolium multiflorum), crabgrass, large (Digitaria sanguinalis), giant foxtail (Setaria faberii), green foxtail (Setaria viridis), morningglory (Ipomoea spp.), pigweed (Amaranthus retroflexus), velvetleaf (Abutilon theophrasti), wheat (Triticum aestivum), and corn (Zea mays) were planted into a blend of loam soil and sand and treated preemergence with a directed soil spray using test chemicals formulated in anon-phytotoxic solvent mixture which included a surfactant.
(§2) At the same time, plants selected from these crop and weed species and also blackgrass (Alopecurus myosuroides), and Galium (catchweed bedstraw, Galium aparine) were planted in pots containing the same blend of loam soil and sand and treated with postemergence applications of test chemicals formulated in the same manner. Plants ranged in height from 2 to 10 cm and were in the one- to two-leaf stage for the postemergence treatment. Treated plants and untreated controls were maintained in a greenhouse for approximately 10 d, after which time all treated plants were compared to untreated controls and visually evaluated for injury. Plant response ratings, summarized in Table A, are based on a 0 to 100 scale where 0 is no effect and 100 is complete control. A dash (-) response means no test result.

[2] = tested on: barnyardgrass (Echinochloa crus-galli); assay: Test A postemergence
Text: as §1, §2

[3] = tested on: wheat (Triticum aestivum); assay: Test A postemergence
Text: as §1, §2

[4] = tested on: ryegrass, Italian (Italian ryegrass, Lolium multiflorum); assay: Test A postemergence
Text: as §1, §2

[5] = tested on: giant foxtail (Setaria faberii); assay: Test A postemergence
Text: as §1, §2

[6] = tested on: blackgrass (Alopecurus myosuroides); assay: Test A postemergence
Text: as §1, §2

corn (Zea mays) = assay: Test A postemergence
Text: as §1, §2

[7] = tested on: ragweed (common ragweed, Ambrosia elatior); assay: Test A postemergence
Text: as §1, §2

[8] = tested on: Galium (catchweed bedstraw, Galium aparine); assay: Test A postemergence
Text: as §1, §2

[9] = tested on: pigweed (Amaranthus retroflexus); assay: Test A postemergence
Text: as §1, §2

[10] = tested on: barnyardgrass (Echinochloa crus-galli); assay: Test B flooded paddy test; details: Flood, 250 g ai/ha; 0 to 100 scale where 0 is no effect and 100 is complete control; 13 to 15 d
Procedure, shortened: (§3)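 Percent control, visually estimated after 13–15 d in the greenhouse on a 0–100 basis, compares treated pots with untreated ones; compound was put into paddy water 3 cm above the soil when plants had two leaves.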

[11] = tested on: sedge, umbrella (small-flower umbrella sedge, Cyperus difformis); assay: Test B flooded paddy test; details: Flood, 250 g ai/ha; 0 to 100 scale where 0 is no effect and 100 is complete control; 13 to 15 d
Procedure, shortened: as §3

rice (Oryra sativa) = assay: Test B flooded paddy test; details: Flood, 250 g ai/ha; 0 to 100 scale where 0 is no effect and 100 is complete control; 13 to 15 d
Procedure, shortened: as §3

[12] = tested on: ducksalad (Heteranthera limosa); assay: Test B flooded paddy test; details: Flood, 250 g ai/ha; 0 to 100 scale where 0 is no effect and 100 is complete control; 13 to 15 d
Procedure, shortened: as §3

Kochia (Kochia scoparia) [13] = assay: Test A preemergence; details: Preemergence; for Plant response rating, Kochia: 125 g ai/ha, visual injury after approximately 10 d, 0 to 100 scale where 0 is no effect and 100 is complete control; for Kochia plant response rating (0 to 100 scale, 0 is no effect, 100 is complete control): 500 g ai/ha, visual injury approx. 10 d
Text: as §1, §2

[14] = tested on: barnyardgrass (Echinochloa crus-galli); assay: Test A preemergence; details: Preemergence; for Plant response rating, Barnyardgrass: 125 g ai/ha, visual injury after approximately 10 d, 0 to 100 scale where 0 is no effect and 100 is complete control; for Barnyardgrass plant response rating (0 to 100 scale, 0 is no effect, 100 is complete control): 500 g ai/ha, visual injury approx. 10 d
Text: as §1, §2

[15] = tested on: ryegrass, Italian (Italian ryegrass, Lolium multiflorum); assay: Test A preemergence; details: Preemergence; for Plant response rating, Ryegrass, Italian: 125 g ai/ha, visual injury after approximately 10 d, 0 to 100 scale where 0 is no effect and 100 is complete control; for Ryegrass, Italian plant response rating (0 to 100 scale, 0 is no effect, 100 is complete control): 500 g ai/ha, visual injury approx. 10 d
Text: as §1, §2

[16] = tested on: giant foxtail (Setaria faberii); assay: Test A preemergence; details: Preemergence; for Plant response rating, Foxtail, Giant: 125 g ai/ha, visual injury after approximately 10 d, 0 to 100 scale where 0 is no effect and 100 is complete control; for Foxtail, Giant plant response rating (0 to 100 scale, 0 is no effect, 100 is complete control): 500 g ai/ha, visual injury approx. 10 d
Text: as §1, §2

[17] = tested on: ragweed (common ragweed, Ambrosia elatior); assay: Test A preemergence; details: Preemergence; for Plant response rating, Ragweed: 125 g ai/ha, visual injury after approximately 10 d, 0 to 100 scale where 0 is no effect and 100 is complete control; for Ragweed plant response rating (0 to 100 scale, 0 is no effect, 100 is complete control): 500 g ai/ha, visual injury approx. 10 d
Text: as §1, §2

[18] = tested on: pigweed (Amaranthus retroflexus); assay: Test A preemergence; details: Preemergence; for Plant response rating, Pigweed: 125 g ai/ha, visual injury after approximately 10 d, 0 to 100 scale where 0 is no effect and 100 is complete control; for Pigweed plant response rating (0 to 100 scale, 0 is no effect, 100 is complete control): 500 g ai/ha, visual injury approx. 10 d
Text: as §1, §2

[19] = 125 g ai/ha, postemergence, visual rating after approx. 10 d, 0 to 100 scale (0 no effect, 100 complete control)
[20] = Postemergence, 500 g ai/ha, 0 to 100 scale where 0 is no effect and 100 is complete control
[21] = 125 g ai/ha, postemergence, visual injury rating on 0 to 100 scale (0 no effect, 100 complete control), approx. 10 d

Compound | Plant response rating, Kochia (Kochia (Kochia scoparia) [1]; [20]) | Plant response rating, Barnyardgrass [2, 20] | Plant response rating, Wheat [3, 20] | Plant response rating, Ryegrass, Italian [4, 20] | Plant response rating, Foxtail, Giant [5, 20] | Plant response rating, Blackgrass [6, 20] | Plant response rating, Corn (corn (Zea mays); [20]) | Plant response rating, Ragweed [7, 20] | Plant response rating, Galium [8, 20] | Plant response rating, Pigweed [9, 20] | Plant response rating, Barnyardgrass [10] | Plant response rating, Sedge, Umbrella [11] | Plant response rating, Rice (rice (Oryra sativa)) | Plant response rating, Ducksalad [12] | Plant response rating, Kochia (Kochia (Kochia scoparia) [13]) | Kochia plant response rating (0 to 100 scale, 0 is no effect, 100 is complete control) (Kochia (Kochia scoparia) [13]) | Plant response rating, Barnyardgrass [14] | Barnyardgrass plant response rating (0 to 100 scale, 0 is no effect, 100 is complete control) [14] | Plant response rating, Ryegrass, Italian [15] | Ryegrass, Italian plant response rating (0 to 100 scale, 0 is no effect, 100 is complete control) [15] | also measured
CC(C)Oc1cccc(C2CNC(=O)C2C(=O)Nc2ccc(F)c(F)c2F)c1 (stereo not drawn) [Compound 554] | 50 | 90 | 50 | 90 | 80 | 70 | 70 | 30 | 60 | 0 | 55 | 0 | 25 | 100 | 70 | 90 | 90 | 90 | 20 | 40 | Plant response rating, Kochia (Kochia (Kochia scoparia) [1]; [19]): 20; Plant response rating, Barnyardgrass [2, 19]: 80; Plant response rating, Wheat [3, 19]: 20; Plant response rating, Ryegrass, Italian [4, 19]: 40; Plant response rating, Foxtail, Giant [5, 19]: 70; Plant response rating, Blackgrass [6, 19]: 60; Plant response rating, Corn (corn (Zea mays); [19]): 40; Plant response rating, Ragweed [7, 19]: 0; Plant response rating, Galium [8, 19]: 60; Plant response rating, Pigweed [9, 19]: 0; Plant response rating, Foxtail, Giant [16]: 90; Foxtail, Giant plant response rating (0 to 100 scale, 0 is no effect, 100 is complete control) [16]: 90; Plant response rating, Ragweed [17]: 20; Ragweed plant response rating (0 to 100 scale, 0 is no effect, 100 is complete control) [17]: 70; Plant response rating, Pigweed [18]: 0; Pigweed plant response rating (0 to 100 scale, 0 is no effect, 100 is complete control) [18]: 30
Cc1ccc(C2CNC(=O)C2C(=O)Nc2ccc(F)cc2F)c(F)c1 (racemic) [Compound 508] | 20 | 90 | 20 | 0 | 40 | 0 | 20 | 0 | 20 | 20 | 0 | 0 | 0 | 50 | 0 | 0 | 70 | 90 | 0 | 0 | Kochia plant response rating (Kochia (Kochia scoparia) [1]; [21]): 0; Barnyardgrass plant response rating [2, 21]: 70; Wheat plant response rating [3, 21]: 0; Ryegrass, Italian plant response rating [4, 21]: 0; Foxtail, Giant plant response rating [5, 21]: 0; Blackgrass plant response rating [6, 21]: 0; Corn plant response rating (corn (Zea mays); [21]): 0; Ragweed plant response rating [7, 21]: 0; Galium plant response rating [8, 21]: 0; Pigweed plant response rating [9, 21]: 0; Plant response rating, Foxtail, Giant [16]: 40; Foxtail, Giant plant response rating (0 to 100 scale, 0 is no effect, 100 is complete control) [16]: 70; Plant response rating, Ragweed [17]: 0; Ragweed plant response rating (0 to 100 scale, 0 is no effect, 100 is complete control) [17]: 0; Plant response rating, Pigweed [18]: 0; Pigweed plant response rating (0 to 100 scale, 0 is no effect, 100 is complete control) [18]: 0
